Measured values reported in patent publication US20250314661A1, “CHEMIGENETIC TOOLS AND METHODS OF CONTROLLING AND ASSESSING PROTEIN PHASE SEPARATION” (THE REGENTS OF THE UNIVERSITY OF CALIFORNIA, priority 2022, published 2025).

Key:
Ctgf = assay: RT-qPCR of YAP target gene Ctgf mRNA; assay type: cell-based; conditions: cells transfected with CEL-EGFP-YAP without the ZIF construct
Protocol: FIG. 6A-D show representative images illustrating that the SparkDrop-Y AP condensates produce nascent RNAs and upregulate a direct target gene of Y AP. […] The cells were short labeled with EU for 1 hour. Arrows point to the induced YAP condensates and the colocalized nascent RNA droplets. Arrowhead points to nucleoli. The nucleus marked by asterisk was not transfected with SparkDrop-YAP. […] Data are shown as meant SD (n=3).
Lastly, whether the SparkDrop-Y AP condensates upregulate mRNA levels of a YAP target gene Ctgf were determined using RT-qPCR. […] As a control, cells were incubated with DMSO. […] Next, a positive control was conducted by incubating cells with sorbitol, which is known to induce osmotic stress and drive YAP condensate formation. […] Lastly, cells were transfected with CEL-EGFP-Y AP (without the ZIF construct), and incubated with lenalidomide or DMSO.

other cells = conditions: cells other than multiple myeloma; Siu et al. (2017); cited from earlier work
ERK = ERK activity reporter ERK-KTR translocation after lenalidomide-induced SOScat translocation
Excerpt: The relocated SOScat then activates Ras, which leads to ERK activation via the MAPK pathway.
The presence of SOS in the PM can activate Ras and promote ERK activity via the MAPK pathway (FIG. 2C, left). For targeting SOS to the PM, ZIF was first fused to the CAAX motif tagged with a red fluorescent protein (RFP). Next, CEL was fused to the catalytic domain of SOS (referred to as SOScat), which was tagged with a near infrared fluorescent protein IFP2 that helps visualizing SOScat translocation (FIG. 2C, left). […] To determine whether SOScat translocation activates ERK, a GFP translocation-based ERK activity reporter called ERK-KTR was used, which translocates from the nucleus to the cytoplasm upon activation of endogenous ERK (Regot et al. (2014) Cell 157:1724-1734).

[1] = molecular target: MYCN fused to FRB and mEGFP (UniProt P04198); assay: cell-based or functional assay
MYCN fused to FRB and mEGFP, sequence (P04198 other isoform, or with tags, fused parts or gaps): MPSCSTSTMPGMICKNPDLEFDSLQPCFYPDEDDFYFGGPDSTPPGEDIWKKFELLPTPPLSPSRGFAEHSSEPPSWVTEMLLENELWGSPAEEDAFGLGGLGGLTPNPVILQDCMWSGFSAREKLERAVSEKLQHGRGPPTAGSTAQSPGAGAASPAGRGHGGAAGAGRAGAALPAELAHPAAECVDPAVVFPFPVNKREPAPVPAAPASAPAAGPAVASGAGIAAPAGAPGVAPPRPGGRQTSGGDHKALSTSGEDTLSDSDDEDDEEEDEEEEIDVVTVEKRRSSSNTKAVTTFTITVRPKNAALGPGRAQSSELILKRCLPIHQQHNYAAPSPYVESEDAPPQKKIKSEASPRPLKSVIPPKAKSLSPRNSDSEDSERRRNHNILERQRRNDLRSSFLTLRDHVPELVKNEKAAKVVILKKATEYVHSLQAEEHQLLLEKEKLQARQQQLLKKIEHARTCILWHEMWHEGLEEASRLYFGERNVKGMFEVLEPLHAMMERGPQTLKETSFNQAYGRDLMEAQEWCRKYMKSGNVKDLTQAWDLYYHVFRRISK

DDB1 = molecular target: T1, DDB1 (UniProt Q16531 1-1140); assay: FLAG pull-down and Western blot against DDB1, HEK293 cells, with or without exogenous DDB1
T1 construct: Tested both as endogenous protein of HEK293 cells and with exogenous over-expression; also called endogenous DDB1; exogenous DDB1
T1 sequence (Q16531 whole entry): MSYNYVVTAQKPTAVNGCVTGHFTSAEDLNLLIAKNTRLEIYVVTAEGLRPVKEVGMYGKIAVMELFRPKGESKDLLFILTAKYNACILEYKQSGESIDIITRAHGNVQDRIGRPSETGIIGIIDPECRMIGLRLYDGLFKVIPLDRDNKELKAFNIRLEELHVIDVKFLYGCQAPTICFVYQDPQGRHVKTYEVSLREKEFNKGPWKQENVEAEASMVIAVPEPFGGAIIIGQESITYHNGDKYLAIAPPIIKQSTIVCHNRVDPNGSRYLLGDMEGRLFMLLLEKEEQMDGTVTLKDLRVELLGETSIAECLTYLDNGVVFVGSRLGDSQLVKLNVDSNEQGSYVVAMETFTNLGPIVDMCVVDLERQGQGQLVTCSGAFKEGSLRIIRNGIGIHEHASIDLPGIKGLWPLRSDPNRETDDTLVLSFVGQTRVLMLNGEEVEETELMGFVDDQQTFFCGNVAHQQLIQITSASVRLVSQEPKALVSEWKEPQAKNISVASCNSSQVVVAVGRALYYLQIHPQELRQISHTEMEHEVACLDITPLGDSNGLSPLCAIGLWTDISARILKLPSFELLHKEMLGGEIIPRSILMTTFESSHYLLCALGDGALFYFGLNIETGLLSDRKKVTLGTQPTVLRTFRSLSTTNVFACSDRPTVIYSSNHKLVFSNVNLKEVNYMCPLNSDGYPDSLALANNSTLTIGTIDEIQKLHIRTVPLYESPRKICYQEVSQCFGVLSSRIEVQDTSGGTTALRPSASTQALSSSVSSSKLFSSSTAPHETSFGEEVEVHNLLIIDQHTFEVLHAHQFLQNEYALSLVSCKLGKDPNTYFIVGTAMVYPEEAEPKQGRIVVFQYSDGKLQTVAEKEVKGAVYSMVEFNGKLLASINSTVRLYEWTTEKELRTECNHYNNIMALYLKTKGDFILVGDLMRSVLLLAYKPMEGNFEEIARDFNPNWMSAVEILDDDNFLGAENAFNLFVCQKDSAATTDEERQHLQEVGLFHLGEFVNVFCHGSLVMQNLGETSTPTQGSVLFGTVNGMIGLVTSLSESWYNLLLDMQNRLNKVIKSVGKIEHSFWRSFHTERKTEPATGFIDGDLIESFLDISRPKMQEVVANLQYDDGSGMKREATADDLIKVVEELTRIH

## Nc1cccc2c1CN(C1CCC(=O)NC1=O)C2=O (stereo not shown) [lenalidomide]
Ctgf
  Ctgf mRNA, control without ZIF construct: not upregulated
Other cells
  toxicity in other cells: no or little toxicity
ERK; cells expressing CEL-IFP2-SOScat and ZIF-RFP-CAAX
  ERK-KTR translocation: translocated from the nucleus to the cytoplasm
ERK; cells expressing CEL-IFP2-SOScat without ZIF
  ERK-KTR translocation, control without ZIF: did not induce ERK-KTR translocation

## O=C1CCC(N2C(=O)c3ccccc3C2=O)C(=O)N1 (stereo not shown) [thalidomide]
Other cells
  toxicity in other cells: no or little toxicity

## SUMO-mCherry-FKBP (from UniProt P62942 2-108)
[1]
  dissolution of MYCN condensates after addition of rapamycin: 10 min

B1: FLAG-tagged CEL (109 amino acid CRBN C-terminal domain) (other)
chain: SLCCKQCQETEITTKNEIFSLSLCGPMAAYVNPHGYVHETLTVYKACNLNLIGRPSTEHSWFPGYAWTVAQCKICASHIGWKFTATKKDMSPQKFWGLTRSALLPTIPD
notes: Expressed in HEK293 cells; also called CRBN CTD; not shown: FLAG tag
DDB1
  binding result: no binding
